Source: patent US9359330B2, “Substituted piperidines as sodium channel blockers” (Purdue Pharma L.P., priority 2013, dated 2016)

The compounds below were run against hNav1.7 (Homo sapiens (Human), UniProt Q15858) (assay: Electrophysiology (EP) whole-cell patch clamp assay, hNav1.7 expressing HEK-293 cells). Details: affinity for inactivated channels; read-out: Nav1.7 Activity EP assay Ki.
Assay type: cell-based

hNav1.7, sequence (Q15858 other isoform, or with tags, fused parts or gaps): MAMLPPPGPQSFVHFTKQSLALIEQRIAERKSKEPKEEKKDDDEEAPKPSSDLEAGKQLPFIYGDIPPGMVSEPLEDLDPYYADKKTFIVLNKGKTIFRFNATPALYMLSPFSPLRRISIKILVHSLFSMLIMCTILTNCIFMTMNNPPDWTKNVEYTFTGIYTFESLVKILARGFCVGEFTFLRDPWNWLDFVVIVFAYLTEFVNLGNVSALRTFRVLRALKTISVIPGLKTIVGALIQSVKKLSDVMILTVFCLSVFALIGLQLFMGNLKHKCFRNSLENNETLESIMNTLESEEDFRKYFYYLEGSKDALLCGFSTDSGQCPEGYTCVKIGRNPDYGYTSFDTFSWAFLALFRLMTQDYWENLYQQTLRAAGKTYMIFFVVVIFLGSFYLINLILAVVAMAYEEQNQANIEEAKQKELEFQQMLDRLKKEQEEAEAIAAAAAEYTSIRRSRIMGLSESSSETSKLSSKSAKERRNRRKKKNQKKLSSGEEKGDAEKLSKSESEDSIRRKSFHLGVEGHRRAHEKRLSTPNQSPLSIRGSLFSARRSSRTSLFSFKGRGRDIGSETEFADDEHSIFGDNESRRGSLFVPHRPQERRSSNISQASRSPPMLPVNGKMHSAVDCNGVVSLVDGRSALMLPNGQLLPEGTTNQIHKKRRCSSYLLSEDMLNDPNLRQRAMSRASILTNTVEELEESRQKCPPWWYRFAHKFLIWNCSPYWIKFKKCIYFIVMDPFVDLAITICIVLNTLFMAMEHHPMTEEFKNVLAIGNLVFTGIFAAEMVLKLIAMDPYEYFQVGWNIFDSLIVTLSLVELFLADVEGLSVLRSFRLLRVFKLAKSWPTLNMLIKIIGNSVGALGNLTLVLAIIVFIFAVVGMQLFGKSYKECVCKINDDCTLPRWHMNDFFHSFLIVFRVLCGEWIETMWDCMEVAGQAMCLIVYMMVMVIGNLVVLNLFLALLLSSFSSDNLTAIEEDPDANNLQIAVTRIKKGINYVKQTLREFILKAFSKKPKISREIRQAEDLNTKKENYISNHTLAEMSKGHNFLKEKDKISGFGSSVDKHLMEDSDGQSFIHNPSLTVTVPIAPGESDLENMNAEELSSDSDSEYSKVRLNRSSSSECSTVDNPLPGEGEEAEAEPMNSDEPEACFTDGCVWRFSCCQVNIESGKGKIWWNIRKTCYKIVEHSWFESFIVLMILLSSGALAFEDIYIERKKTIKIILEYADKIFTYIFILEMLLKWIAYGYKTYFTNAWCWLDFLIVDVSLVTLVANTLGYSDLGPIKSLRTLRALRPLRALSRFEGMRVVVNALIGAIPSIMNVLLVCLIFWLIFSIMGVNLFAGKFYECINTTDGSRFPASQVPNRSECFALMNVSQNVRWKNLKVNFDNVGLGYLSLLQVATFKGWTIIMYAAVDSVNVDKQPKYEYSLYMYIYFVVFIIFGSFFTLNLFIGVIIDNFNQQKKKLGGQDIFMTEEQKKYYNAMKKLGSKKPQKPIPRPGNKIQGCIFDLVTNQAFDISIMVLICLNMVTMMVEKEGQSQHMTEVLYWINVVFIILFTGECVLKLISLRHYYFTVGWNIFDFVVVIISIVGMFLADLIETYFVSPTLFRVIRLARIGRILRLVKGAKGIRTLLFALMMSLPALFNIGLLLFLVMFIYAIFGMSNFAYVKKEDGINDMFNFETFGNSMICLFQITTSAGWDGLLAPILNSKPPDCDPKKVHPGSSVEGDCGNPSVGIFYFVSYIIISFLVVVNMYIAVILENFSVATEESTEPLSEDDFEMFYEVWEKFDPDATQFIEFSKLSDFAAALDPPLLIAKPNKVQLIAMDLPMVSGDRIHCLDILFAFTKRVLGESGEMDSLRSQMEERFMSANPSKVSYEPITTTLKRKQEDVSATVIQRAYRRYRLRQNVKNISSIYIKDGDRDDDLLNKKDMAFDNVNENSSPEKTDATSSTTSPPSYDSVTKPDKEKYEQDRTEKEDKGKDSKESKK

| Ki [µM] | SMILES |
| --- | --- |
| 2.1 ± 0.384 | COc1ncc(-c2ccccc2C2CCCN(C(=O)c3ccc(OCC(F)(F)F)nc3)C2)cn1 (stereo not drawn) [Compound 13, (3-(2-(2-methoxypyrimidin-5-yl)phenyl)piperidin-1-yl)(6-(2,2,2-trifluoroethoxy)pyridin-3-yl)methanone] |
| 0.511 ± 0.1 | COc1ncc(-c2ccccc2C2CCCN(C(=O)c3ccc(OCC(F)(F)F)cc3)C2)cn1 (stereo not drawn) [Compound 6, (3-(2-(2-methoxypyrimidin-5-yl)phenyl)piperidin-1-yl)(4-(2,2,2-trifluoroethoxy)phenyl) methanone] |

Same assay, conditions: resting block dissociation constant; read-out: Nav1.7 Activity EP assay Kr

| Kd [µM] | SMILES |
| --- | --- |
| 115 ± 22.3 | COc1ncc(-c2ccccc2C2CCCN(C(=O)c3ccc(OCC(F)(F)F)nc3)C2)cn1 (stereo not drawn) [Compound 13, (3-(2-(2-methoxypyrimidin-5-yl)phenyl)piperidin-1-yl)(6-(2,2,2-trifluoroethoxy)pyridin-3-yl)methanone] |
| 97.9 ± 9.3 | COc1ncc(-c2ccccc2C2CCCN(C(=O)c3ccc(OCC(F)(F)F)cc3)C2)cn1 (stereo not drawn) [Compound 6, (3-(2-(2-methoxypyrimidin-5-yl)phenyl)piperidin-1-yl)(4-(2,2,2-trifluoroethoxy)phenyl) methanone] |

The compounds below were run against human Nav1.7 (Homo sapiens (Human), UniProt Q15858) (assay: FLIPR sodium dye assay with KCl and test article pre-incubation, recombinant Nav1.7/HEK293 cells). Details: Nav1.7, FLIPR assay.
human Nav1.7, sequence (Q15858 other isoform, or with tags, fused parts or gaps): as above
Assay type: cell-based

| SMILES | IC50 [µM] |
| --- | --- |
| COc1ncc(-c2ccccc2C2CCCN(C(=O)c3cccnc3N)C2)cn1 (stereo not drawn) [Compound 28, (2-aminopyridin-3-yl)(3-(2-(2-methoxypyrimidin-5-yl)phenyl)piperidin-1-yl)methanone] | 2.57 ± 0.574 |
| O=C(c1ccc(OCC(F)(F)F)nc1)N1CCCC(c2ccccc2)C1 (stereo not drawn) [Compound 10, (3-phenylpiperidin-1-yl)(6-(2,2,2-trifluoroethoxy)pyridin-3-yl)methanone] | 1.6 ± 0.105 |
| CN(C)c1ncc(-c2ccccc2C2CCCN(C(=S)Nc3ccc(C(F)(F)F)cc3)C2)cn1 (stereo not drawn) [Compound 29, 3-(2-(2-(dimethylamino)pyrimidin-5-yl)phenyl)-N-(4-(trifluoromethyl)phenyl)piperidine-1-carbothioamide] | > 20 |
| CN(C)c1ncc(-c2ccccc2C2CCCN(C(=O)c3ccc(OCC(F)(F)F)nc3)C2)cn1 (stereo not drawn) [Compound 18, (3-(2-(2-(dimethylamino)pyrimidin-5-yl)phenyl)piperidin-1-yl)(6-(2,2,2-trifluoroethoxy)pyridin-3-yl)methanone] | 0.558 ± 0.031 |
| COc1ncccc1-c1ccccc1C1CCCN(C(=O)c2ccc(OCC(F)(F)F)nc2)C1 (stereo not drawn) [Compound 17, (3-(2-(2-methoxypyridin-3-yl)phenyl)piperidin-1-yl)(6-(2,2,2-trifluoroethoxy)pyridin-3-yl)methanone] | 0.691 ± 0.06 |
| O=C(c1ccc(OCC(F)(F)F)nc1)N1CCCC(c2ccccc2-c2ccc(F)nc2)C1 (stereo not drawn) [Compound 15, (3-(2-(6-fluoropyridin-3-yl)phenyl)piperidin-1-yl)(6-(2,2,2-trifluoroethoxy)pyridin-3-yl)methanone] | 0.954 ± 0.153 |
| CSc1ncc(-c2ccccc2C2CCCN(C(=O)c3ccc(OCC(F)(F)F)nc3)C2)cn1 (stereo not drawn) [Compound 16, (3-(2-(2-(methylthio)pyrimidin-5-yl)phenyl)piperidin-1-yl)(6-(2,2,2-trifluoroethoxy)pyridin-3-yl)methanone] | 0.676 ± 0.039 |
| O=C(c1ccc(OCC(F)(F)F)nc1)N1CCCC(c2ccccc2O)C1 (stereo not drawn) [Compound 7, (3-(2-hydroxyphenyl)piperidin-1-yl)(6-(2,2,2-trifluoroethoxy)pyridin-3-yl)methanone] | 2.57 ± 0.062 |
| O=C(c1ccc(OCC(F)(F)F)nc1)N1CCCC(c2ccccc2-c2ccc(O)nc2)C1 (stereo not drawn) [Compound 19, (3-(2-(6-hydroxypyridin-3-yl)phenyl)piperidin-1-yl)(6-(2,2,2-trifluoroethoxy)pyridin-3-yl)methanone] | 5.47 ± 0.22 |
| COc1ncc(-c2ccccc2C2CCCN(C(=O)c3ccc(OCC(F)(F)F)nc3)C2)cn1 (stereo not drawn) [Compound 13, (3-(2-(2-methoxypyrimidin-5-yl)phenyl)piperidin-1-yl)(6-(2,2,2-trifluoroethoxy)pyridin-3-yl)methanone] | 0.873 ± 0.027 |
| COc1ncc(-c2ccccc2C2CCCN(C(=O)c3ccc(OCC(F)(F)F)cc3)C2)cn1 (stereo not drawn) [Compound 6, (3-(2-(2-methoxypyrimidin-5-yl)phenyl)piperidin-1-yl)(4-(2,2,2-trifluoroethoxy)phenyl) methanone] | 0.209 ± 0.016 |

Now from value to compound:

| IC50 [µM] | SMILES |
| --- | --- |
| 10 to 20 | COc1ccc(C(=O)N2CCCC(c3ccccc3-c3cnc(N(C)C)nc3)C2)cc1[C@H](O)CO (stereo partly drawn) [Compound 35, (3-((S)-1,2-dihydroxyethyl)-4-methoxyphenyl)(3-(2-(2-(dimethylamino)pyrimidin-5-yl)phenyl)piperidin-1-yl)methanone] |
| 0.941 ± 0.132 | CN(C)c1ncc(-c2ccccc2C2CCCN(C(=O)Nc3ccc(OC(F)(F)F)cc3)C2)cn1 (stereo not drawn) [Compound 31, 3-(2-(2-(dimethylamino)pyrimidin-5-yl)phenyl)-N-(4-(trifluoromethoxy)phenyl)piperidine-1-carboxamide] |
| 0.689 ± 0.035 | CN(C)c1ncc(-c2ccccc2C2CCCN(C(=O)c3ccc(OC(F)(F)F)cc3)C2)cn1 (stereo not drawn) [Compound 39, (3-(2-(2-(dimethylamino)pyrimidin-5-yl)phenyl)piperidin-1-yl)(4-(tri-fluoromethoxy)phenyl)methanone] |
| 0.384 ± 0.08 | COc1ccc(C(=O)N2CCCC(c3ccccc3-c3cnc(N(C)C)nc3)C2)cc1 (stereo not drawn) [Compound 36, (3-(2-(2-(dimethylamino)pyrimidin-5-yl)phenyl)piperidin-1-yl)(4-methoxyphenyl)methanone] |
| > 20 | CN(C)c1ncc(-c2ccccc2C2CCCN(S(=O)(=O)Nc3ncns3)C2)cn1 (stereo not drawn) [Compound 43, 3-(2-(2-(dimethylamino)pyrimidin-5-yl)phenyl)-N-(1,2,4-thiadiazol-5-yl)piperidine-1-sulfonamide] |
| 0.376 ± 0.029 | CN(C)c1ncc(-c2ccccc2C2CCCN(S(=O)(=O)c3ccc(OC(F)(F)F)cc3)C2)cn1 (stereo not drawn) [Compound 33, N,N-dimethyl-5-(2-(1-((4-(trifluoromethoxy)phenyl)sulfonyl)piperidin-3-yl)phenyl)pyrimidin-2-amine] |
| 0.096 ± 0.006 | CN(C)c1ncc(-c2ccccc2C2CCCN(C(=O)c3ccc(OCC(F)(F)F)cc3)C2)cn1 (stereo not drawn) [Compound 40, (3-(2-(2-(dimethylamino)pyrimidin-5-yl)phenyl)piperidin-1-yl)(4-(2,2,2-trifluoroethoxy)phenyl)methanone] |
| > 20 | CN(C)c1ncc(-c2ccccc2C2CCCN(C(=O)c3cccc(C(N)=O)c3)C2)cn1 (stereo not drawn) [Compound 37, 3-(3-(2-(2-(dimethylamino)-pyrimidin-5-yl)phenyl)piperidine-1-carbonyl) benzamide] |
| > 20 | COc1ccc(C(=O)N2CCCC(c3ccccc3-c3cnc(N(C)C)nc3)C2)cc1[C@@H](O)CO (stereo partly drawn) [Compound 34, (3-((R)-1,2-dihydroxyethyl)-4-methoxyphenyl)(3-(2-(2-(dimethylamino)pyrimidin-5-yl)phenyl)piperidin-1-yl)methanone] |
| 2.52 ± 0.753 | COc1ccc(NC(=S)N2CCCC(c3ccccc3-c3cnc(N(C)C)nc3)C2)cc1 (stereo not drawn) [Compound 30, 3-(2-(2-(dimethylamino)pyrimidin-5-yl)phenyl)-N-(4-methoxyphenyl)piperidine-1-carbothioamide] |
| 0.672 ± 0.118 | COc1ccc(S(=O)(=O)N2CCCC(c3ccccc3-c3cnc(N(C)C)nc3)C2)cc1 (stereo not drawn) [Compound 32, 5-(2-(1-((4-methoxyphenyl)sulfonyl)piperidin-3-yl)phenyl)-N,N-dimethylpyrimidin-2-amine] |
| > 20 | CN(C)c1ncc(-c2ccccc2C2CCCN(C(=O)c3ccc(C(N)=O)cc3)C2)cn1 (stereo not drawn) [Compound 38, 4-(3-(2-(2-(dimethylamino)-pyrimidin-5-yl)phenyl)piperidine-1-carbonyl) benzamide] |
